Target: T1, human O-GlcNAcase (Homo sapiens, UniProt O60502)
T1 sequence (O60502 1-916): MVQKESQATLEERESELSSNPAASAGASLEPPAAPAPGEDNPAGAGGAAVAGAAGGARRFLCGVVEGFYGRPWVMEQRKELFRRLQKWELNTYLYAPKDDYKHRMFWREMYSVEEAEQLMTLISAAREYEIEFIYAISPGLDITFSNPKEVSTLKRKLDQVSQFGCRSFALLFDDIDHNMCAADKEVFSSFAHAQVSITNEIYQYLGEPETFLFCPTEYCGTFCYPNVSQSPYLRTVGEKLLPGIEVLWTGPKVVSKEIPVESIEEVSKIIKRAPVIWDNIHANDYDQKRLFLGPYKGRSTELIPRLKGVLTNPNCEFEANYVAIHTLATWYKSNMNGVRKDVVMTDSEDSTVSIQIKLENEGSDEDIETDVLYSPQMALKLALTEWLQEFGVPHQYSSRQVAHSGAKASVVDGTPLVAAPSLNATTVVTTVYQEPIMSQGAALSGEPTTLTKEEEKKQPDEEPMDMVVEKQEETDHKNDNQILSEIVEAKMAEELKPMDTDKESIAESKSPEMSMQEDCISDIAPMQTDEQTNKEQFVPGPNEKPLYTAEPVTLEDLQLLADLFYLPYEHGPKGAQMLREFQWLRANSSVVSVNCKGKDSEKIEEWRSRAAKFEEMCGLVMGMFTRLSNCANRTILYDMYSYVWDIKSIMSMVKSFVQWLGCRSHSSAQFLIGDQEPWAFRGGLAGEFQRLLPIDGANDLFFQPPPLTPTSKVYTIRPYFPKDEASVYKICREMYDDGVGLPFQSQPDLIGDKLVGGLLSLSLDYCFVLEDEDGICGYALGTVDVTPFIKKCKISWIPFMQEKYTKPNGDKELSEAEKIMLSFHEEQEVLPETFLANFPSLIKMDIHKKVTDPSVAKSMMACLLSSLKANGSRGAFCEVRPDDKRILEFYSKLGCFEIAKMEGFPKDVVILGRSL
Assay: Determination of KI values for inhibition of O-GlcNAcase activity (fluorogenic 4-methylumbelliferyl GlcNAc substrate)
Assay type: biochemical
Conditions: purified human O-GlcNAcase 0.7 nM, 2 mM substrate, pH 7.0, room temperature; Cheng-Prusoff; read-out: Ki
Protocol: Assay for Determination of […] for Inhibition of O-GlcNAcase Activity
Experimental procedure for kinetic analyses: Enzymatic reactions were carried out in a reaction containing 50 mM NaH2PO4, 100 mM NaCl and 0.1% BSA (pH 7.0) using 2 mM 4-Methylumbelliferyl N-acetyl-β-D-glucosaminide dihydrate (Sigma M2133) dissolved in ddH2O, as a substrate. The amount of purified human O-GlcNAcase enzyme used in the reaction was 0.7 nM. Test compound of varying concentrations was added to the enzyme prior to initiation of the reaction. The reaction was performed at room temperature in a 96-well plate and was initiated with the addition of substrate. […] The slope of product production was determined for each concentration of compound tested and plotted, using standard curve fitting algorithms for sigmoidal dose response curves. The values for a four parameter logistic curve fit of the data were determined.

Ki [nM]	SMILES
9.5	COc1ccc(C/C=C(\[C@H]2O[C@@H]3SC(N(C)C)=N[C@@H]3[C@@H](O)[C@@H]2O)C(F)(F)F)cc1 (single isomer, unassigned) [Example 3]
1.2	CNC1=N[C@@H]2[C@@H](O)[C@H](O)[C@@H]([C@@H](O)CCc3ccc(OC)cc3)O[C@@H]2S1 (single isomer, unassigned) [Example 7]
0.92	CN(C)C1=N[C@@H]2[C@@H](O)[C@H](O)[C@@H](C(O)(CCc3ccccc3)C(F)(F)F)O[C@@H]2S1 (stereo in doubt) [Example 27, (3aR,5S,6S,7R,7aR)-2-(dimethylamino)-5-((S)-1,1,1-trifluoro-2-hydroxy-4-phenylbutan-2-yl)-5,6,7,7a-tetrahydro-3aH-pyrano[3,2-d]thiazole-6,7-diol]
316	CN(C)C1=N[C@@H]2[C@@H](O)[C@H](O)[C@@H]([C@@](O)(CCc3ccccc3)C(F)(F)F)O[C@@H]2S1 (stereo in doubt) [Example 28, (3aR,5S,6S,7R,7aR)-2-(dimethylamino)-5-(1,1,1-trifluoro-2-hydroxy-4-phenylbutan-2-yl)-5,6,7,7a-tetrahydro-3aH-pyrano[3,2-d]thiazole-6,7-diol]
109	COc1ccc(CC[C@H]([C@H]2O[C@@H]3SC(N(C)C)=N[C@@H]3[C@@H](O)[C@@H]2O)C(F)(F)F)cc1 [Example 1, (3aR,5R,6S,7R,7aR)-2-(dimethylamino)-5-((R)-1,1,1-trifluoro-4-(4-methoxyphenyl)butan-2-yI)-5,6,7,7a-tetrahydro-3aH-pyrano[3,2-d]thiazole-6,7-diol]
72	CCOC(=O)/C=C/[C@H]1O[C@@H]2SC(NC)=N[C@@H]2[C@@H](O)[C@@H]1O [Example 5, (E)-ethyl 3-((3aR,5R,6S,7R,7aR)-6,7-dihydroxy-2-(methylamino)-5,6,7,7a-tetrahydro-3aH-pyrano[3,2-d]thiazol-5-yl)acrylate]
139	CNC1=N[C@@H]2[C@@H](O)[C@H](O)[C@@H]([C@@H](CCc3ccc(OC)cc3)C(F)(F)F)O[C@@H]2S1 [Example 17, (3aR,5R,65,7R,7aR)-2-(methylamino)-5-((R)-1,1,1-trifluoro-4-(4-methoxyphenyl)butan-2-yl)-5,6,7,7a-tetrahydro-3aH-pyrano[3,2-d]thiazole-6,7-diol]
1.1	CNC1=N[C@@H]2[C@@H](O)[C@H](O)[C@@H]([C@H](CCc3ccc(OC)cc3)C(F)(F)F)O[C@@H]2S1 [Example 18, (3aR,5R,65,7R,7aR)-2-(methylamino)-5-(1,1,1-trifluoro-4-(4-methoxyphenyl)butan-2-yl)-5,6,7,7a-tetrahydro-3aH-pyrano[3,2-d]thiazole-6,7-diol]
20	CN(C)C1=N[C@@H]2[C@@H](O)[C@H](O)[C@@H](C(=CCc3ccccc3)C(F)(F)F)O[C@@H]2S1 [Example 19, (3aR,5R,6S,7R,7aR)-2-(dimethylamino)-5-(1,1,1-trifluoro-4-phenylbut-2-en-2-yl)-5,6,7,7a-tetrahydro-3aH-pyrano[3,2-d]thiazole-6,7-diol]
736	CN(C)C1=N[C@@H]2[C@@H](O)[C@H](O)[C@@H]([C@H](O)Cc3ccccc3)O[C@@H]2S1 [Example 20, (3aR,5R,6S,7R,7aR)-2-(dimethylamino)-5-((R)-1-hydroxy-2-phenylethyl)-5,6,7,7a-tetrahydro-3aH-pyrano[3,2-d]thiazole-6,7-diol]
25.6	CN(C)C1=N[C@@H]2[C@@H](O)[C@H](O)[C@@H]([C@@H](O)Cc3ccccc3)O[C@@H]2S1 [Example 21, (3aR,5R,6S,7R,7aR)-2-(dimethylamino)-5-((S)-1-hydroxy-2-phenylethyl)-5,6,7,7a-tetrahydro-3aH-pyrano[3,2-d]thiazole-6,7-diol]
505	COc1ccc(CC[C@@H](O)[C@H]2O[C@@H]3SC(N(C)C)=N[C@@H]3[C@@H](O)[C@@H]2O)cc1 [Example 22, (3aR,5R,6S,7R,7aR)-2-(dimethylamino)-5-((R)-1-hydroxy-3-(4-methoxyphenyl)propyl)-5,6,7,7a-tetrahydro-3aH-pyrano[3,2-d]thiazole-6,7-diol]

Continued, molecule first:

SMILES	Ki [nM]
COc1ccc(CC[C@@H]([C@H]2O[C@@H]3SC(N(C)C)=N[C@@H]3[C@@H](O)[C@@H]2O)C(F)(F)F)cc1 (single isomer, unassigned) [Example 2]	1.6
COc1ccc(C/C=C(/[C@H]2O[C@@H]3SC(N(C)C)=N[C@@H]3[C@@H](O)[C@@H]2O)C(F)(F)F)cc1 (single isomer, unassigned) [Example 4]	16.2
CNC1=N[C@@H]2[C@@H](O)[C@H](O)[C@@H]([C@H](O)CCc3ccc(OC)cc3)O[C@@H]2S1 (single isomer, unassigned) [Example 6]	139
CNC1=N[C@@H]2[C@@H](O)[C@H](O)[C@@H]([C@](O)(CCc3ccc(OC)cc3)C(F)(F)F)O[C@@H]2S1 (single isomer, unassigned) [Example 8]	0.95
CNC1=N[C@@H]2[C@@H](O)[C@H](O)[C@@H]([C@@](O)(CCc3ccc(OC)cc3)C(F)(F)F)O[C@@H]2S1 (single isomer, unassigned) [Example 9]	24
COc1ccc(CCC(O)([C@H]2O[C@@H]3SC(N(C)C)=N[C@@H]3[C@@H](O)[C@@H]2O)C(F)(F)F)cc1 (stereo in doubt) [Example 29, (3aR,5S,6S,7R,7aR)-2-(dimethylamino)-5-((S)-1,1,1-trifluoro-2-hydroxy-4-(4-methoxyphenyl)butan-2-yl)-5,6,7,7a-tetrahydro-3aH-pyrano[3,2-d]thiazole-6,7-diol]	1.1
CNC1=N[C@@H]2[C@@H](O)[C@H](O)[C@@H](C(F)(F)CCc3ccc(OC)cc3)O[C@@H]2S1 [Example 10, (3aR,5S,6S,7R,7aR)-5-(1,1-difluoro-3-(4-methoxyphenyl)propyl)-2-(methylamino)-5,6,7,7a-tetrahydro-3aH-pyrano[3,2-d]thiazole-6,7-diol]	69
CN(C)C1=N[C@@H]2[C@@H](O)[C@H](O)[C@@H](CC#N)O[C@@H]2S1 [Example 11, 2-((3aR,5R,6S,7R,7aR)-2-(dimethylamino)-6,7-dihydroxy-5,6,7,7a-tetrahydro-3aH-pyrano[3,2-d]thiazol-5-yl)acetonitrile]	5.9
CNC1=N[C@@H]2[C@@H](O)[C@H](O)[C@@H](CCC(=O)OC)O[C@@H]2S1 [Example 12, methyl 3-((3aR,5R,6S,7R,7aR)-6,7-dihydroxy-2-(methylamino)-5,6,7,7a-tetrahydro-3aH-pyrano[3,2-d]thiazol-5-yl)propanoate]	22
CNC(=O)CC[C@H]1O[C@@H]2SC(N(C)C)=N[C@@H]2[C@@H](O)[C@@H]1O [Example 13, 3-((3aR,5R,6S,7R,7aR)-2-(dimethylamino)-6,7-dihydroxy-5,6,7,7a-tetrahydro-3aH-pyrano[3,2-d]thiazol-5-yl)-N-methylpropanamide]	100
C=C(C)[C@H]1O[C@@H]2SC(NC)=N[C@@H]2[C@@H](O)[C@@H]1O [Example 14, (3aR,5R,6S,7R,7aR)-2-(methylamino)-5-(prop-1-en-2-yl)-5,6,7,7a-tetrahydro-3aH-pyrano[3,2-d]thiazole-6,7-diol 2,2,2-trifluoroacetate]	10.1
C=C([C@H]1O[C@@H]2SC(NC)=N[C@@H]2[C@@H](O)[C@@H]1O)C(F)(F)F [Example 15, (3aR,5R,6S,7R,7aR)-2-(methylamino)-5-(3,3,3-trifluoroprop-1-en-2-yl)-5,6,7,7a-tetrahydro-3aH-pyrano[3,2-d]thiazole-6,7-diol]	63
C=C(C)[C@H]1O[C@@H]2SC(N(C)C)=N[C@@H]2[C@@H](O)[C@@H]1O [Example 16, (3aR,5R,6S,7R,7aR)-2-(dimethylamino)-5-(prop-1-en-2-yl)-5,6,7,7a-tetrahydro-3aH-pyrano[3,2-d]thiazole-6,7-diol]	21
COc1ccc(CC[C@H](O)[C@H]2O[C@@H]3SC(N(C)C)=N[C@@H]3[C@@H](O)[C@@H]2O)cc1 [Example 23, (3aR,5R,6S,7R,7aR)-2-(dimethylamino)-5-((S)-1-hydroxy-3-(4-methoxyphenyl)propyl)-5,6,7,7a-tetrahydro-3aH-pyrano[3,2-d]thiazole-6,7-diol]	6.4

— US9938299B2, “Glycosidase inhibitors and uses thereof” (MERCK SHARP & DOHME CORP., priority 2012, dated 2018)
